Legend:
HL-60 cells = test: HL-60 cell proliferation assay (CellTiter-Glo); format: cell-based; details: 4 days incubation
Text: HL-60 cells are a Philadelphia Chromosome Negative (Ph-) cell line that serve as a control for the K-562 proliferation assay. Compounds that exert their activity by inhibition of Abl kinase should not inhibit proliferation of HL-60 cells unless such activity is due to off-target activity. This assay determines the number of viable cells in a culture by quantification of ATP. Promega's CellTiter-Glo® Luminescent Cell Viability Assay (CTG) is the reagent used for this determination. The assay is homogenous. Addition of the CTG reagent results in cell lysis and generation of a luminescent signal through the luciferase reaction. The luminescent signal is proportional to the amount of ATP present. For compounds that interfere with cell division and/or have effects on cell size, the readout is not necessarily proportional to cell number/viability. […] Cytostatic: Luminescence counts should be equivalent to counts obtained from a Day 0 read; and Cytotoxic: Luminescence counts should be equivalent to background. • Seed cells at 20000 cells/well in 20 ul cell plating media into a 384 well cell plate. […] Incubate in humidified CO2 incubator • Day 4a: Add 40 uL of Cell Titer-Glo solution • Day 4b: Incubate CTG reaction • Day 4c: Read luminescence

K-562 cells = test: K-562 cell proliferation assay (CellTiter-Glo); format: cell-based; details: Homo sapiens, K562, 96 h; expected value of assay standard; 4 days incubation; read-out: EC50 to inhibit K-562 cell growth
Text: The luminescent signal is proportional to the amount of ATP present.

Structure (SMILES)	EC50 to inhibit HL-60 cell growth (in words) (HL-60 cells; expected result of assay standard)	EC50 (K-562 cells)	EC50 (HL-60 cells; Homo sapiens, HL-60, 96 h, expected value of assay standard, read-out: EC50 to inhibit HL-60 cell growth)
CS(=O)(=O)O.Cc1ccc(NC(=O)c2ccc(CN3CCN(C)CC3)cc2)cc1Nc1nccc(-c2cccnc2)n1 [CAS NO 220127-57-1]	Inactive	–	–
COC(=O)Nc1nc2ccc(C(=O)c3cccs3)cc2[nH]1 [Nocodazole]	–	~0.04 µM	~0.04 µM

From patent US8623889B2, “Substituted 6,6-fused nitrogenous heterocyclic compounds and uses thereof” (Genentech, Inc., priority 2010, dated 2014)
